Drawing on US9387204B2, “Fused bicyclic imidazoles” (BAYER INTELLECTUAL PROPERTY GmbH, priority 2007, dated 2016), this text covers IC50 for 18 compounds.

One series concerns phospho-Akt (Ser473). Nature of the series: Cellular PI3K/Akt pathway assay (phospho-Akt ELISA). In kind it is cell-based. The following applies: MCF7 cells, β-Heregulin stimulated, 48 h, phospho-Akt1 (Ser473) ELISA. The protocol:
In order to study the cellular activity of the compounds according to the present invention, an Enzyme Linked Immunosorbent Assay (ELISA)-based assay has been used specific phospho-AKT. The assay is based on a Sandwich ELISA kit (PathScan™ Phospho-Akt1 (Ser473); Cell Signaling, USA; #7160).
The ELISA Kit detects endogenous levels of phosphorylated Akt protein. A phospho-Akt (Ser473) antibody (Cell Signaling, USA; #9271) has been coated onto the microwells. After incubation with cell lysates, the coated antibody captures the phosphorylated Akt protein. Following extensive washing, Akt1 monoclonal antibody (Cell Signaling, USA; #2967) is added to detect the captured phospho-Akt1 protein. HRP-linked anti-mouse antibody (HRP: horseradish peroxidase; Cell Signaling, USA; #7076) is then used to recognize the bound detection antibody. HRP substrate (=3,3′,5,5′-tetramethylbenzidine (TMB); Cell Signaling, USA; #7160) is added to develop colour. The magnitude of optical density for this developed color is proportional to the quantity of phosphorylated Akt protein. MCF7 cells (ATCC HTB-22) are seeded into 96 well fate bottom plates at a density of 10000 cells/well. 24 hours after seeding, the cells are serum starved using low-serum medium (IMEM media including 0.1% charcoal treated FCS (FCS: fetal calf serum)). […] To stimulate Akt phosphorylation, β-Heregulin (20 ng/ml β-HRG) is added in parallel to the compounds. Wells containing unstimulated control cells (no β-Heregulin stimulation) are incubated with or without the diluted compound. Wells containing untreated control cells (no compound) are filled with medium containing 0.5% v:v DMSO and are or are not stimulated with β-Heregulin.
Cells are harvested and lysed with brief sonification in 1× cell lysis buffer (20 mM Tris (pH7.5), 150 mM NaCl, 1 mM ethylene diaminetetraacetate (EDTA), 1 mM ethylene glycolbis(2-aminoethyl)-N,N,N′,N′-tetraacetic acid (EGTA), 1 vol % Triton X-100, 2.5 mM sodium pyrophosphate, 1 mM β-glycerolphosphate, 1 mM Na3VO4, 1 μg/ml leupeptin). The lysate is centrifuged for 10 min. at 4° C. and the supernatant is transferred to a new tube. 100 μl of sample diluent (0.1 vol % Tween-20, 0.1 vol % sodium azide in phosphate buffered saline (PBS)) are added to a microcentrifuge tube and 100 μl of cell lysate are transferred into the tube and vortexed. 100 μl of each diluted cell lysate are added to the appropriate ELISA well, and incubated overnight at 4° C. The plates are washed 4 times with 1× wash buffer (1 vol % tween-20, 0.33 vol % thymol, in PBS). Next 100 μl of detection antibody (Akt1 (2H10) monoclonal detection antibody; Cell Signaling, USA; #2967) are added to each well and incubation continued for 1 h at 37° C. The washing procedure is repeated between each step. 100 μl of secondary antibody (anti-mouse IgG HRP-linked antibody; Cell Signaling, USA; #7076) are added to each well and incubated for 30 min. at 37° C. Than, 100 μl of TMB substrate (0.05% 3,3′,5,5′ tetramethylbenzidine, 0.1% hydrogen peroxide, complex polypeptides in a buffered solution; Cell Signaling, USA; #7160) are added to each well and incubated for 30 min. at 25° C. Finally 100 μl of STOP solution (0.05 vol % α and β unsaturated carbonyl compound) are added to each well and the plate are shaked gently. The absorbance is measured at ? 450 nm (Wallac Victor2; Perkin Elmer, USA) within 30 min. after adding the STOP solution. The analysis of the data is performed using a statistical program (Excel; Microsoft, USA). Preferred compounds show an inhibitory activity towards Akt phosphorylation below 10 μM.
(In an ELISA, binding on a coated surface is turned into a signal by an enzyme label.)

The test system of series [1] is A549 cells. Nature of the series: Cellular proliferation/cytotoxicity assay (Alamar Blue), A549 cells. The conditions noted are these: read-out: Anti-proliferative/Cytotoxic activity (A549 cells). A general note: Resazurin is reduced to fluorescent resorufin, in cell work by metabolically active cells.
Experimental: (§1) The anti-proliferative activity of the compounds as described herein, is evaluated using the OvCAR3, HCT116 and A549 cell lines and the Alamar Blue (Resazurin) cell viability assay (O'Brien et al. Eur J Biochem 267, 5421-5426, 2000). Resazurin is reduced to the fluorescent resorufin by cellular dehydrogenase activity, correlating with viable, proliferating cells. Test compounds are dissolved as 10 mM solutions in DMSO and subsequently diluted. Cells like HCT116 or A549 cells were seeded into 96 well flat bottom plates at a density of 10000 cells/well (OvCAR3 cells), 1000 cells/well (HCT116 cells) or 2000 cells/well (A549 cells) in a volume of 200 μl/well. 24 hours after seeding, 1 μl each of the compound dilutions are added into each well of the 96 well plates. Each compound dilution is tested as at least as duplicates. Wells containing untreated control cells were filled with 200 μl DMEM (Dulbecco's Modified Eagle Medium) containing 0.5 vol % v:v DMSO. The cells are then incubated with the substances for 72 h at 37° C. in a humidified atmosphere containing 5 vol % CO2. To determine the viability of the cells, 20 μl of a Resazurin solution (90 mg/l) are added. After 4 h incubation at 37° C., the fluorescence is measured by extinction at ? =544 nm and an emission of ? =590 nm (Wallac Victor2; Perkin Elmer, USA). For the calculation of the cell viability, the emission value from untreated cells is set as 100% viability and the fluorescence intensity of treated cells are set in relation to the values of untreated cells. Viabilities are expressed as % values. The corresponding IC50 values of the compounds for cytotoxic activity are determined from the concentration-effect curves by means of non-linear regression. The analysis of the data is performed using a biostatistical program (Graph Pad Prism, USA).
The subject of a further series is OvCAR3 cells. As to the kind of experiment: Cellular proliferation/cytotoxicity assay (Alamar Blue), OvCAR3 cells. In kind it is cell-based. The conditions noted are these: Homo sapiens, OVCAR-3, 72 h, Alamar Blue (Resazurin), read-out: Anti-proliferative/Cytotoxic activity (OvCAR3 cells). From the text:
Viabilities are expressed as % values.

Series [2] concerns A549 cells.
Experimental: as §1
Setting [3] is: A549 cells, 72 h, Alamar Blue (Resazurin).

Structures are written as SMILES. pIC50: −log10 of the molar value. Where two headings read alike, the source gives them in different places.

For `N#Cc1cccn2c(-c3ccccc3)c(-c3ccc(CN4CCC(c5nnc(-c6ccccc6)[nH]5)CC4)cc3)nc12` [Example 117, 3-phenyl-2-(4-{[4-(5-phenyl-4H-1,2,4-triazol-3-yl)piperidin-1-yl]methyl}phenyl)imidazo[1,2-a]pyridine-8-carbonitrile], the pIC50 in the series on phospho-Akt (Ser473) (Homo sapiens) is more than 6.00; in the series with A549 cells [1] (Homo sapiens, A549, 72 h), less than 5.00.

Take `N#Cc1cccn2c(-c3ccccc3)c(-c3ccc(CN4CCC(c5nnc(-c6ncccn6)[nH]5)CC4)cc3)nc12` [Example 77, 3-phenyl-2-[4-({4-[5-(pyrimidin-2-yl)-4H-1,2,4-triazol-3-yl]piperidin-1-yl}methyl)phenyl]imidazo[1,2-a]pyridine-8-carbonitrile]: the pIC50 was more than 6.00 in the series with phospho-Akt (Ser473) (Homo sapiens) and less than 5.00 in the series on A549 cells [1] (Homo sapiens, A549, 72 h).

For the compound `Cc1cccc(-c2nnc(C3CCN(Cc4ccc(-c5nc6c(C#N)cccn6c5-c5ccccc5)cc4)CC3)[nH]2)n1` [Example 62, 2-[4-({4-[5-(6-methylpyridin-2-yl)-4H-1,2,4-triazol-3-yl]piperidin-1-yl}methyl)phenyl]-3-phenylimidazo[1,2-a]pyridine-8-carbonitrile], the pIC50 with phospho-Akt (Ser473) (Homo sapiens) is more than 6.00; in the series with A549 cells [1] (Homo sapiens, A549, 72 h), less than 5.00.

Regarding `Clc1ccc2nc(-c3ccc(CN4CCC(c5n[nH]c(-c6ccccn6)n5)CC4)cc3)c(-c3ccccc3)n2n1` [Example 31, 6-chloro-3-phenyl-2-(4-{[4-(5-pyridin-2-yl-1,2,4-triazol-3-yl)piperidin-1-yl]methyl}phenyl)imidazo[1,2-b]pyridazine], the pIC50 with OvCAR3 cells is more than 5.00; with A549 cells [1] (Homo sapiens, A549, 72 h) it was less than 5.00.

As to `c1ccc(-c2c(-c3ccc(CN4CCC(c5nnc(-c6ccc[nH]6)[nH]5)CC4)cc3)nc3ncccn23)cc1` [Example 106, ′3-phenyl-2-[4-({4-[5-(1H-pyrrol-2-yl)-4H-1,2,4-triazol-3-yl]piperidin-1-yl}methyl)phenyl]imidazo[1,2-a]pyrimidine], the pIC50 was more than 6.00 with phospho-Akt (Ser473) and less than 5.00 in the series with A549 cells [1] (setting [3]).

With `COc1ccn2c(-c3ccccc3)c(-c3ccc(CN4CCC(c5nnc(-c6cccc(C)n6)[nH]5)CC4)cc3)nc2c1` [Example 68, ′7-methoxy-2-[4-({4-[5-(6-methylpyridin-2-yl)-4H-1,2,4-triazol-3-yl]piperidin-1-yl}methyl)phenyl]-3-phenylimidazo[1,2-a]pyridine], the pIC50 with phospho-Akt (Ser473) is more than 6.00; in the series on A549 cells [2] it was more than 5.00.

With `N#Cc1cccn2c(-c3ccccc3)c(-c3ccc(CN4CCC(c5n[nH]c(-c6ccccn6)n5)CC4)cc3)nc12` [Example 5, 3-phenyl-2-(4-{[4-(5-pyridin-2-yl-1,2,4-triazol-3-yl)piperidin-1-yl]methyl}phenyl)imidazo[1,2-a]pyridine-8-carbonitrile], the pIC50 with OvCAR3 cells was more than 5.00; in the series on A549 cells [1] (Homo sapiens, A549, 72 h), more than 5.00.

In the case of `COC(=O)c1ccn2c(-c3ccccc3)c(-c3ccc(CN4CCC(c5nnc(-c6ccccn6)[nH]5)CC4)cc3)nc2c1` [Example 124, methyl 3-phenyl-2-[4-({4-[5-(pyridin-2-yl)-4H-1,2,4-triazol-3-yl]piperidin-1-yl}methyl)phenyl]imidazo[1,2-a]pyridine-7-carboxylate], the pIC50 with phospho-Akt (Ser473) (Homo sapiens) was more than 6.00; in the series on A549 cells [1] (Homo sapiens, A549, 72 h), less than 5.00.

Compound `c1ccc(-c2nnc(C3CCN(Cc4ccc(-c5nc6sccn6c5-c5ncco5)cc4)CC3)[nH]2)nc1` [Example 43, 5-(1,3-oxazol-2-yl)-6-(4-{[4-(5-pyridin-2-yl-4H-1,2,4-triazol-3-yl)piperidin-1-yl]methyl}phenyl)imidazo[2,1-b][1,3]thiazole] had a pIC50 with phospho-Akt (Ser473) (Homo sapiens) of 5.00 to 6.00.

For the compound `N#Cc1cccn2c(-c3ccccc3)c(-c3ccc(CN4CCC(c5nnc(-c6ccncc6)[nH]5)CC4)cc3)nc12` [Example 59, ′3-phenyl-2-(4-{[4-(5-pyridin-4-yl-4H-1,2,4-triazol-3-yl)piperidin-1-yl]methyl}phenyl)imidazo[1,2-a]pyridine-8-carbonitrile], the pIC50 with phospho-Akt (Ser473) is more than 6.00; in the series with A549 cells [2] it was more than 5.00.

For `Cc1cccc(-c2nnc(C3CCN(Cc4ccc(-c5nc6sccn6c5-c5ccccc5)cc4)CC3)[nH]2)n1` [Example 66, ′6-[4-({4-[5-(6-methylpyridin-2-yl)-4H-1,2,4-triazol-3-yl]piperidin-1-yl}methyl)phenyl]-5-phenylimidazo[2,1-b][1,3]thiazole], the pIC50 in the series on phospho-Akt (Ser473) is more than 6.00; in the series on A549 cells [1] (setting [3]) it was more than 5.00.

Regarding `N=C(N)c1cccn2c(-c3ccccc3)c(-c3ccc(CN4CCC(c5n[nH]c(-c6ccccn6)n5)CC4)cc3)nc12` [Example 33, 3-phenyl-2-(4-{[4-(5-pyridin-2-yl-1,2,4-triazol-3-yl)piperidin-1-yl]methyl}phenyl)imidazo[1,2-a]pyridine-8-carboximidamide], the pIC50 in the series with OvCAR3 cells is more than 5.00; in the series with A549 cells [1] (Homo sapiens, A549, 72 h), more than 5.00.

For the compound `COc1nccn2c(-c3ccccc3)c(-c3ccc(CN4CCC(c5nnc(-c6cccc(C)n6)[nH]5)CC4)cc3)nc12` [Example 65, ′8-methoxy-2-[4-({4-[5-(6-methylpyridin-2-yl)-4H-1,2,4-triazol-3-yl]piperidin-1-yl}methyl)phenyl]-3-phenylimidazo[1,2-a]pyrazine], the values for the pIC50 in the series with phospho-Akt (Ser473) and in the series with A549 cells [1] (setting [3]) were more than 6.00 and more than 5.00, respectively.

For `NC(=O)c1cccn2c(-c3ccccc3)c(-c3ccc(CN4CCC(c5n[nH]c(-c6ccccn6)n5)CC4)cc3)nc12` [Example 40, 3-phenyl-2-(4-{[4-(5-pyridin-2-yl-1,2,4-triazol-3-yl)piperidin-1-yl]methyl}phenyl)imidazo[1,2-a]pyridine-8-carboxamide], the pIC50 is more than 5.00 in the series on OvCAR3 cells and less than 5.00 in the series with A549 cells [1] (Homo sapiens, A549, 72 h).

For `c1ccc(-c2c(-c3ccc(CN4CCC(c5nnc(-c6ccco6)[nH]5)CC4)cc3)nc3sccn23)cc1` [Example 93, ′6-[4-({4-[5-(2-furyl)-4H-1,2,4-triazol-3-yl]piperidin-1-yl}methyl)phenyl]-5-phenylimidazo[2,1-b][1,3]thiazole], the values for the pIC50 with phospho-Akt (Ser473) and in the series on A549 cells [1] (setting [3]) were more than 6.00 and more than 5.00, respectively.

`Cc1cccc(-c2nnc(C3CCN(Cc4ccc(-c5nc6cc(C#N)ccn6c5-c5ccccc5)cc4)CC3)[nH]2)n1` [Example 61, 2-[4-({4-[5-(6-methylpyridin-2-yl)-4H-1,2,4-triazol-3-yl]piperidin-1-yl}methyl)phenyl]-3-phenylimidazo[1,2-a]pyridine-7-carbonitrile]: the pIC50 is more than 6.00 in the series on phospho-Akt (Ser473) (Homo sapiens) and less than 5.00 in the series with A549 cells [1] (Homo sapiens, A549, 72 h).

With `c1ccc(-c2c(-c3ccc(CN4CCC(c5cc(-c6ccccn6)[nH]n5)CC4)cc3)nc3scnn23)cc1` [Example 112, ′5-phenyl-6-(4-{[4-(5-pyridin-2-yl-1H-pyrazol-3-yl)piperidin-1-yl]methyl}phenyl)imidazo[2,1-b][1,3,4]thiadiazole], the pIC50 with A549 cells [1] (setting [3]) was more than 5.00.

As for `CCc1nn2c(-c3ccccc3)c(-c3ccc(CN4CCC(c5nnc(-c6ccccn6)[nH]5)CC4)cc3)nc2s1` [Example 51, 2-ethyl-5-phenyl-6-(4-{[4-(5-pyridin-2-yl-4H-1,2,4-triazol-3-yl)piperidin-1-yl]methyl}phenyl)imidazo[2,1-b][1,3,4]thiadiazole], the pIC50 with A549 cells [1] (Homo sapiens, A549, 72 h) was more than 5.00.
